For assay [1], the target named is T1, Orexin/Hypocretin receptor type 1 (Homo sapiens) (UniProt O43613).
T1 sequence (whole entry): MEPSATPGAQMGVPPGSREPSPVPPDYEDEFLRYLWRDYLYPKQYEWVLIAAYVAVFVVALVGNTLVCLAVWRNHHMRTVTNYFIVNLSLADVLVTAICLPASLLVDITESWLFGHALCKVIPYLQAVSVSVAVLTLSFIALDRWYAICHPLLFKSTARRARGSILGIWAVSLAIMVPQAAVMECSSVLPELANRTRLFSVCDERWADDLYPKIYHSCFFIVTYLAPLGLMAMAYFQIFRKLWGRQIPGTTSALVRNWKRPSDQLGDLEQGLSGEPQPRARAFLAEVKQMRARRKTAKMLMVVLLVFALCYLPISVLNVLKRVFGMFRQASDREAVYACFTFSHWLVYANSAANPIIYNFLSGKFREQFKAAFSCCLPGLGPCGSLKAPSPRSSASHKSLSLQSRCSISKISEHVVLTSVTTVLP
Nature of the assay: Antagonist activity at OX1 receptor (unknown origin) expressed in RD-HGA16 cells assessed as inhibition of orexin A-induced calcium mobilization by fluorometric imaging plate reader analysis. The format is functional, cell-based.

In assay [2] the target is T2, Cannabinoid CB1 receptor/orexin receptor 1 complex (Homo sapiens) (UniProt P21554+O43613). Conditions: RD-HGA16.
Description: Antagonist activity at CB1-OX1 heterodimer (unknown origin) expressed in RD-HGA16 cells assessed as inhibition of CP55940-induced calcium mobilization by fluorometric imaging plate reader analysis
Assay [3] has as its target Cannabinoid receptor 1 (Homo sapiens) (UniProt P21554). Conditions: RD-HGA16.
Description: Antagonist activity at CB1 receptor (unknown origin) expressed in RD-HGA16 cells assessed as inhibition of CP55940-induced calcium mobilization by fluorometric imaging plate reader analysis
In assay [4] the target is T2, Cannabinoid CB1 receptor/orexin receptor 1 complex (Homo sapiens). To be noted: RD-HGA16. This is another data set of the same source.
Description: Antagonist activity at CB1-OX1 heterodimer (unknown origin) expressed in RD-HGA16 cells assessed as inhibition of orexin A-induced calcium mobilization by fluorometric imaging plate reader analysis

The structures appear in SMILES notation.

Cannabinoid receptor 1 (Homo sapiens), sequence (P21554 whole entry): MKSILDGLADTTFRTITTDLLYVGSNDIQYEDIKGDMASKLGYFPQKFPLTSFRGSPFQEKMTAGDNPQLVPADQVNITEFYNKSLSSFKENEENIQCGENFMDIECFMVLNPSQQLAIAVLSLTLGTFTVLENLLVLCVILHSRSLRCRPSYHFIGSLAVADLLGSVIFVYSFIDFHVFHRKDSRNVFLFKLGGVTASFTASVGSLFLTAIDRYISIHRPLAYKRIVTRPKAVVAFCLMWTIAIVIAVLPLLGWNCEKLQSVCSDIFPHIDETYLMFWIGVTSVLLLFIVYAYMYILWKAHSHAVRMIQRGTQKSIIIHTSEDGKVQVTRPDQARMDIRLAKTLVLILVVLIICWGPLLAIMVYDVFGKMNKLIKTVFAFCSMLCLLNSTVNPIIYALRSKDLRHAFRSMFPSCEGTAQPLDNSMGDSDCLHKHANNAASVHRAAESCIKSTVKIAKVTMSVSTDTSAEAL

For the compound `COc1cc2c(cc1OC)C(Cc1ccc(OC(=O)CCCCCCN(C)CCCCCCCCCCCCNC(=O)c3nn(-c4ccc(Cl)cc4Cl)c(-c4ccc(Cl)cc4)c3C)c(OC)c1)N(CC(=O)NCc1ccccc1)CC2` (centres undefined), the Ke in assay [1] was over 10000 nM; in assay [2] it was over 10 µM; in assay [3], 1100 nM; in assay [4] it was 410 nM.
In the case of `CCCC(=O)Oc1cc2c(cc1OC)CCN(CC(=O)NCc1ccccc1)C2Cc1ccc(OC)c(OC)c1` (centres undefined), the Ke in assay [1] stood at 78 nM.
Turning to `COc1ccc(CC2c3cc(OCCCCCCC(=O)NCCOCCOCCOCCNC(=O)c4nn(-c5ccc(Cl)cc5Cl)c(-c5ccc(Cl)cc5)c4C)c(OC)cc3CCN2CC(=O)NCc2ccccc2)cc1OC` (centres undefined), the Ke in assay [1] was 8600 nM; in assay [2], over 10 µM; in assay [3], 8000 nM; in assay [4], 580 nM.
With `CCCC(=O)Oc1ccc(CC2c3cc(OC)c(OC)cc3CCN2CC(=O)NCc2ccccc2)cc1OC` (centres undefined), the Ke in assay [1] was 43 nM.
In the case of `COc1cc2c(cc1OC)C(Cc1ccc(OC(=O)CCCCCCN(C)CCCCCCCCCCNC(=O)c3nn(-c4ccc(Cl)cc4Cl)c(-c4ccc(Cl)cc4)c3C)c(OC)c1)N(CC(=O)NCc1ccccc1)CC2` (centres undefined), the Ke in assay [1] is over 10000 nM; in assay [2], 5.9 µM; in assay [3] it was 1800 nM; in assay [4], 110 nM.
Turning to `COc1ccc(CC2c3cc(OC(=O)CCCCCCN(C)CCCCOCCCCOCCCCOCCNC(=O)c4nn(-c5ccc(Cl)cc5Cl)c(-c5ccc(Cl)cc5)c4C)c(OC)cc3CCN2CC(=O)NCc2ccccc2)cc1OC` (centres undefined), the Ke came out at 3500 nM in assay [1], 4.5 µM in assay [2], 1800 nM in assay [3] and 420 nM in assay [4].
With `CCCCCCCNC(=O)CN1CCc2cc(OC)c(OC)cc2C1Cc1ccc(OC)c(OC)c1` (centres undefined), the Ke in assay [1] is 590 nM.
In the case of `COc1ccc(CC2c3cc(OC)c(OC)cc3CCN2C(C(=O)NCCCCCCCN(C)CCCCCCCNC(=O)c2nn(-c3ccc(Cl)cc3Cl)c(-c3ccc(Cl)cc3)c2C)c2ccccc2)cc1OC` (centres undefined), the Ke was 5500 nM in assay [1], over 10 µM in assay [2], 3000 nM in assay [3] and 230 nM in assay [4].
Turning to `COc1ccc(CC2c3cc(OC(=O)CCCCCCN(C)CCCCCCCNC(=O)c4nn(-c5ccc(Cl)cc5Cl)c(-c5ccc(Cl)cc5)c4C)c(OC)cc3CCN2CC(=O)NCc2ccccc2)cc1OC` (centres undefined), the Ke in assay [1] is 8800 nM; in assay [2], over 10 µM; in assay [3], 2100 nM; in assay [4], 1200 nM.
Consider `CCCCCCOc1ccc(CC2c3cc(OC)c(OC)cc3CCN2CC(=O)NCc2ccccc2)cc1OC` (centres undefined), for which, in assay [1], the Ke is 120 nM.
For `CCCCCCCNC(=O)[C@@H](c1ccccc1)N1CCc2cc(OC)c(OC)cc2C1Cc1ccc(OC)c(OC)c1` (some centres undefined), the Ke in assay [1] was 22 nM.
`CCCCCCOc1cc2c(cc1OC)CCN(CC(=O)NCc1ccccc1)C2Cc1ccc(OC)c(OC)c1` (centres undefined): the Ke in assay [1] was 310 nM.
Take `Cc1nc2ccc(NC(=O)Nc3ccnc4cccnc34)cc2o1`: the Ke was 45 nM in assay [1], 0.032 µM in assay [2], over 10000 nM in assay [3] and over 10000 nM in assay [4].
Regarding `COc1ccc(CC2c3cc(OC)c(OC)cc3CCN2CC(=O)NCc2ccccc2)cc1OC` (centres undefined), the Ke in assay [1] was 200 nM.
On to `COc1cc2c(cc1OC)C(Cc1ccc(OC(=O)CCCCCCN(C)CCCCCCCNC(=O)c3nn(-c4ccc(Cl)cc4Cl)c(-c4ccc(Cl)cc4)c3C)c(OC)c1)N(CC(=O)NCc1ccccc1)CC2` (centres undefined), for which the Ke in assay [1] was 8460 nM; in assay [2], over 10 µM; in assay [3], 1800 nM; in assay [4], 610 nM.

Values taken from ChEMBL document CHEMBL3286373, “Toward the Development of Bivalent Ligand Probes of Cannabinoid CB1 and Orexin OX1 Receptor Heterodimers” (ACS Med Chem Lett, 2014).
